Laboratory results from patent US20060276537A1, “Use of ladostigil for the treatment of multiple sclerosis” (priority 2005, published 2006).

Experiments:
[1] = Body weight of the EAE mice (Table 7); format: in vivo
Source text: These differences were statistically significant (p<0.000, Manova). According to the subsequent Post Hoc comparison (LSD), all the groups were different from the control (Table 7). […] On day 14, four days after the onset of the disease, sick mice lost an average of 2 g of weight. The average mean weight of GA-blocked mice was reduced by only 0.4 g. On day 23 the control group reached the lowest weight, 14.6 g.

[2] = test system: chronic progressive EAE induced by pMOG35-55 in C57BL/6 mice; assay: MOG-induced chronic progressive EAE in C57BL/6 mice, clinical scoring; format: in vivo; settings: GA blocking, dose 250 mg/kg, given with inoculum on day 0
Protocol: MOG (Myelin oligodendrocyte glycoprotein) is a member of the immunoglobulin superfamily expressed exclusively in CNS myelin. It is one of the most encephalitogenic proteins and is widely used to induce EAE in different rodent strains. In C57BL/6 mice, immunization with the MOG peptide pMOG35-55 in CFA induces chronic progressive EAE. Ladostigil was tested in this model in order to assess its ability to inhibit the disease.
EAE was induced by subcutaneous injection of encephalitogenic emulsion at a volume of 0.2 ml/mouse in the right flank. On the day of induction, pertussis toxin was injected intraperitoneally at a volume dose of 0.2 ml/mouse. The injection of the pertussis toxin was repeated after 48 hours. At the end of the experiment, 6-7 brains from control and the ladostigil groups were dissected and frozen at −70° C. for CHE (cholinesterase) determination and 6-7 brains were dissected and frozen for MAO (monoamine oxidase) determination. Before sacrifice, blood for ChE determination was taken on heparine, hemolysed 1/20 in 10 mM cold phosphate buffer pH=6.0 and stored at −70° C. until the assay.
90 female C57Bl/6 mice 8-10 weeks old obtained from Harlan animal breeding center were used in the study. Mice were allocated randomly into 6 groups:
Both compounds were administered by gavage once daily during the whole experiment (30 days) at a volume of 0.2 ml/mouse.
The mice were observed daily from the 10th day post-EAE induction and the EAE clinical signs were scored. The scores were recorded on observation cards according to the grades described in Table 5:
The number of sick animals (animals with a score of ≧1 at any point) in each group was summed.
The incidence of disease and the % activity were calculated as follows: [formula] [formula] [formula]
The maximal scores of all mice in each group were summed.
The mean maximal score and the % activity of the group were calculated as follows: [formula] [formula] [formula]
The individual scores (IMS) of each of the mice during the observation period were summed (score 6 will be counted forward).
The GMS of the group and its % activity were calculated as follows: [formula] [formula] [formula]
Their dates of onset were calculated as day of termination +1.

glatiramer acetate [GA, reference compound]
Reduction of average mean weight ([1]; GA-blocked mice, day 14): 0.4 g
Weight of EAE mice ([1]; day 2 after induction, GA blocking, dose 250 mg/kg): 18.6 ± 0.8 g
Incidence [2]: 14/15
Mortality [2]: 0/15
% Inhibition ([2]; vs control group mean score): 54.6%
